Reference: patent US4895842A, “Phenylalanine derivative and proteinase inhibitor” (Shosuke Okamoto, priority 1985, dated 1990)

How the values were obtained:
[1] = target: T1, bovine trypsin (Bos taurus, UniProt P00760); test: Antitrypsin activity: inhibition of S-2238 decomposition; assay type: biochemical; settings: Table 2; S-2238 substrate, pH 8.1, 37° C.; read-out: Trypsin S-2238 (I50)
T1 sequence (P00760 24-246): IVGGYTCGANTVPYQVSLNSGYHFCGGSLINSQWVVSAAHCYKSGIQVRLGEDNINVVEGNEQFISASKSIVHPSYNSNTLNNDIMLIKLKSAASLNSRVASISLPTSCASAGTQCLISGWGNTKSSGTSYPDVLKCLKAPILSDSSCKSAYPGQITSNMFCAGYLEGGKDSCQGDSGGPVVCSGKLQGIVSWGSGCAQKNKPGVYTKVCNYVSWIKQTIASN

[2] = target: human plasma kallikrein (Homo sapiens, UniProt P03952); test: Anti-plasma kallikrein activity: inhibition of S-2302 decomposition; assay type: biochemical; settings: Table 2; S-2302 substrate, pH 7.8, 37° C.; read-out: Plasma Kallikrein S-2302 (I50)
Chain of human plasma kallikrein (P03952 391-638 limits assumed): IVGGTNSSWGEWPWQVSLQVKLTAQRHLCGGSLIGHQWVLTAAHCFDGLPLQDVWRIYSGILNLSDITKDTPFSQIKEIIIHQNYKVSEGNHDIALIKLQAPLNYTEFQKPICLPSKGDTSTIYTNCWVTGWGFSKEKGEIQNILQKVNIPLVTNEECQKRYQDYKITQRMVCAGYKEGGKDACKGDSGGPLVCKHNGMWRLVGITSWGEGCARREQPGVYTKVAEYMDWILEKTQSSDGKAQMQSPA
Chain of human plasma kallikrein (P03952 20-390 partner limits assumed): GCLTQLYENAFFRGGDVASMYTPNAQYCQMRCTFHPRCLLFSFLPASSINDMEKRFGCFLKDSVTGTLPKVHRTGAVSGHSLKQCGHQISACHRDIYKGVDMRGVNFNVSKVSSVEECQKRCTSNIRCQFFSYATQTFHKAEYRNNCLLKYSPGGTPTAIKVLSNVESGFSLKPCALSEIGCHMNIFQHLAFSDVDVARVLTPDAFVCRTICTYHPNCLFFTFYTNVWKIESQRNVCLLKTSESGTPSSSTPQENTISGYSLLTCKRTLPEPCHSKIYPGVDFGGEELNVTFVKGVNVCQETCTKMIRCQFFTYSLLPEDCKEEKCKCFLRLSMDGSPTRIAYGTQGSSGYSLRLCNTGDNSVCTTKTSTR

[3] = target: T2, bovine thrombin (Bos taurus, UniProt P00735); test: Antithrombin activity: inhibition of fibrin formation from fibrinogen; assay type: biochemical
Procedure, shortened: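 Inhibitor in 0.18M borate-saline buffer pH 7.4 mixed with 0.2% bovine fibrinogen and 4 unit/ml bovine thrombin (stock levels) at 37° C; clotting time measured. I50 is the inhibitor concentration doubling coagulation time versus uninhibited control.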

[4] = target: T2, bovine thrombin; test: Antithrombin activity: inhibition of S-2238 decomposition; assay type: biochemical; settings: Table 2; S-2238 substrate, pH 8.3, 37° C.; read-out: Thrombin S-2238 (I50)
Procedure, shortened: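 Inhibitor in 0.05 M Tris-HCl, pH 8.3, preincubated with S-2238 (0.2 mM stock) for 5 min at 37 °C. Bovine thrombin (0.2 unit/ml stock) then added, and p-nitroaniline release followed at 405 nm by initial velocity at 37 °C. I50 is the concentration halving the rate.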

[5] = target: T3, human plasmin (Homo sapiens, UniProt P00747); test: Antiplasmin activity: inhibition of fibrin decomposition; assay type: biochemical; settings: Table 2; concentration at which fibrin dissolution time is extended twice, pH 7.4, 37° C.; read-out: Plasmin Fibrin (I50)
T3 sequence (P00747 581-810 limits assumed): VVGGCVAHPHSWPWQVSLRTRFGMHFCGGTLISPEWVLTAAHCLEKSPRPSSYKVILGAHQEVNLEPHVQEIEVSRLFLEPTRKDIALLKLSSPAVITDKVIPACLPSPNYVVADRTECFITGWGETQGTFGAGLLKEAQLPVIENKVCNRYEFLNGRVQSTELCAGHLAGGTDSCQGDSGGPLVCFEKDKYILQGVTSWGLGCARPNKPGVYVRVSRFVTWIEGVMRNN
T3 sequence (P00747 97-580 partner limits assumed): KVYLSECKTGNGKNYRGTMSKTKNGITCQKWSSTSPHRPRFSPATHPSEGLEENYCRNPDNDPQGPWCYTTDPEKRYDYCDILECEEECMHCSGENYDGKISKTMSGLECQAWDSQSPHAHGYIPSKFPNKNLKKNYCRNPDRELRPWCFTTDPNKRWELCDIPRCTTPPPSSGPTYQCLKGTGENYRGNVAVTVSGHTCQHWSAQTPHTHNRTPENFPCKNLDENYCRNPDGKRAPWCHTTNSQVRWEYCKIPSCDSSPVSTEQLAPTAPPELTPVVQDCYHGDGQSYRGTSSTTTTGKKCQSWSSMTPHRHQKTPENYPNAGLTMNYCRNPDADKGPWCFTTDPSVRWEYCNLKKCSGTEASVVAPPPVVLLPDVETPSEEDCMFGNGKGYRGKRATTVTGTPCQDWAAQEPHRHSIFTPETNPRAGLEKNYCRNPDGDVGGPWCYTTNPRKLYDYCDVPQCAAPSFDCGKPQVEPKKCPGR
Procedure, shortened: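 Inhibitor in 0.18 M borate–physiological saline buffer, pH 7.4, received bovine fibrinogen (0.2% solution), human plasmin (0.3 casein unit/ml solution) and bovine thrombin (50 unit/ml solution) at 37 °C. Time for the resulting fibrin clot to dissolve was recorded.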

[6] = target: human urokinase (Homo sapiens, UniProt P00749); test: biochemical; settings: Table 2; S-2444 substrate, pH 8.8, 37° C.; read-out: Urokinase S-2444 (I50)
Procedure, shortened: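 Inhibitor in 0.05M Tris-HCl pH 8.8 preincubated 5 min at 37° C with S-2444 (1 mM solution added), then human urokinase (500 unit/ml solution) added for 5 min at 37° C; stopped with 50% acetic acid. p-Nitroaniline read at 405 nm; I50 is concentration halving absorbance versus no inhibitor.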

[7] = target: T3, human plasmin; test: biochemical; settings: read-out: Plasmin S-2251 (I50)
Procedure, shortened: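 Inhibitor in 0.05M Tris-HCl buffer, pH 7.4, was incubated with human plasmin added at 0.2 casein unit/ml (stock) at 37° C for 4 minutes, then stopped with 50% acetic acid. I50 (μmol) is the inhibitor concentration giving half the absorbance obtained without inhibitor.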

[8] = read-out: Thrombin Fibrinogen (I50), Table 2, concentration at which coagulation time of bovine fibrinogen is extended twice, pH 7.4, 37° C.
[9] = Table 2, 50% inhibition concentration, S-2251 substrate, pH 7.4, 37° C.

SMILES	IC50 [1] [µM]	IC50 [2] [µM]	IC50 [3] [µM]	IC50 [4] [µM]	IC50 [5] [µM]	IC50 [6] [µM]	IC50 [7] [µM]	IC50 [3, 8] [µM]	IC50 [7, 9] [µM]
CSc1ccc(NC(=O)[C@H](Cc2ccc(OCc3ccccc3)cc2)NC(=O)[C@H]2CC[C@H](CN)CC2)cc1 [compound 29]	3.1	1.1	> 25	> 50	0.35	330	3.1		
CCOC(=O)C1CCCC(NC(=O)[C@H](Cc2ccc(OCc3cccc(Cl)c3)cc2)NC(=O)c2ccc(CN)cc2)C1 (some centres unmarked) [compound 72]	0.95	25		> 50	0.62	> 200		> 25	2.1
CCOC(=O)C1CCCC(NC(=O)[C@H](Cc2ccc(OCc3cccc(Cl)c3)cc2)NC(=O)[C@H]2CC[C@H](CN)CC2)C1 (some centres unmarked) [compound 70]	1.3	6.2		170	0.63	82		> 50	1.7

Results, then the molecule that gave them:

IC50 [1] [µM]	IC50 [2] [µM]	IC50 [3] [µM]	IC50 [4] [µM]	IC50 [5] [µM]	IC50 [6] [µM]	IC50 [7] [µM]	IC50 [3, 8] [µM]	IC50 [7, 9] [µM]	SMILES
1.3	0.44	> 100	> 1000	0.3	82	1.4			NC[C@H]1CC[C@H](C(=O)N[C@@H](Cc2ccc(OCc3cccc(Cl)c3)cc2)C(=O)Nc2ccnc(Cl)c2)CC1 [compound 128]
0.71	0.078	> 50	95	0.28	26	0.39			CC(=O)c1ccc(NC(=O)C(Cc2ccc(Oc3cc(Cl)ccc3[N+](=O)[O-])cc2)NC(=O)C2CCC(CN)CC2)cc1 (centres unmarked) [compound 123]
